Test results reported in patent US8653304B2, “2,3-dihydro-1H-indene-2-yl urea derivative and pharmaceutical application of same” (Toray Industries, Inc., priority 2009, dated 2014).

Columns and labels:
[1] = Pharmacokinetic evaluation in mouse (oral); type: in vivo; conditions: male; BALB/c mouse, oral 0.8 mg/kg, plasma
Experimental: Each test compound was dissolved in 10% HP-β-CD (Nihon Shokuhin Kako Co., Ltd.) to prepare a solution to be administered (0.08 mg/mL, as a solution to be administered for oral administration). To each BALB/c mouse (male, 7-week old, Charles River Laboratories Japan, Inc.), each compound was orally administered at a dose of 0.8 mg/kg. Blood was collected from the jugular vein or heart with time up to 24 hours after the administration. The obtained blood was centrifuged to collect blood plasma. The blood plasma was pretreated by methanol extraction method, and the concentration of the compound was analyzed by LC/MS/MS (ESI positive mode).
In this table, Cmax represents a maximum plasma concentration; and AUC0-∞ represents an area under the curve of the plasma concentration of the compound from after the compound administration to infinite time.

HepG2 cells = test: Ability to induce drug-induced phospholipidosis (HepG2, HCS Lipid TOX Green); type: cell-based, human; conditions: 48 hours
Experimental: Whether an ability to induce phospholipidosis by Compound (I) was observed or not was studied. The evaluation of Compound 46b described in the Examples was carried out by a method partially modified from the method described in Experimental and Toxicologic Pathology (2007, Vol. 58, pp. 375-382).
Each test compound and HCS Lipid TOX Green Phospholipidosis Detection Regent (Invitrogen), which is a phospholipid staining solution, were mixed with HepG2 cells, which are a cell line derived from human hepatoma, and the cells were cultured in the presence of 5% CO2 at 37° C. for 48 hours. The culture supernatant after the culturing was removed, and Hoechest 33258 (Invitrogen), which is a nucleic acid staining solution, was added, followed by allowing the resulting mixture to react in the dark at room temperature for 20 minutes. The resultant was washed with PBS solution. Then the fluorescence intensity was measured with a microplate analyzer (Fusion-α, Packard), and FLA (a relative value when taking amiodarone hydrochloride (10 μM) as 1, the amiodarone hydrochloride being a positive control substance) was calculated according to the following equations. The case where FLA was less than 1 was judged as negative, and the case where FLA was not less than 1 was judged as positive. […]

ICR mouse = test: Evaluation of hepatotoxicity in mouse (plasma AST); type: in vivo; conditions: oral 500 mg/kg, plasma on the day after administration
Experimental: Compound (I) was suspended in 0.5% methylcellulose (Wako Pure Chemical Industries, Ltd.) to prepare a 50 mg/mL solution to be administered. To each ICR mouse (male, 7-week old, Charles River Laboratories Japan, Inc.), each compound was orally administered at a dose of 500 mg/kg. On the day after the administration, blood was collected from the posterior vena cava, and the obtained blood was centrifuged to collect blood plasma. AST (aspartate aminotransferase) value, which is a marker of hepatic disorders in blood plasma, was measured with a biochemistry automatic analyzer (Hitachi 7070, Hitachi, Ltd.). Comparative Compound 4 was suspended in 0.5% sodium carboxymethylcellulose (Wako Pure Chemical Industries, Ltd.) before use.

[2] = tested on: skin swelling response in type I allergic dermatitis model; test: Skin swelling response in type I allergic dermatitis model; type: in vivo; conditions: BALB/c mouse, 20 μL of 0.5 w/v % solution applied to auricle 1 hour before induction
Source text: The action of Compound (I) on skin swelling response in mouse allergic dermatitis models was studied. As the allergic dermatitis models, models partially modified from a type I allergic dermatitis model and a type IV allergic dermatitis model described in documents (Inflamm. Res., 1998, Vol. 47, pp. 506-511 and Int. Arch. Allergy. Appl. Immunol., 1990, Vol. 92, pp. 356-360) were used.
To each BALB/c mouse (female, 7-week old, Charles River Laboratories Japan, Inc.), mouse IgE anti-DNP antibody (0.05 mg/body, […] CORPORATION) was intravenously administered to passively sensitize the mouse. Twenty four hours after the sensitization, 20 μL of 0.38% DNFB (SIGMA) dissolved in acetone:olive oil (4:1) was applied to the auricle of the mouse to induce inflammation. From after the induction to 24 hours, the thickness of the auricle was measured with time using a Digimatic Indicator (Mitutoyo). Each test compound was dissolved in ethanol, and 20 μL of 0.5 w/v % solution was applied to the auricle at 1 hour before the induction.
The swelling ratio of the auricle was calculated according to the following equation. […] Auricular Swelling Ratio(%)=(A−B)/B×100

[3] = tested on: hyperalgesia in carrageenin paw edema pain model; test: Hyperalgesia in inflammatory pain model (carrageenin paw edema pain model); type: in vivo; conditions: SD rat, oral 100 mg/kg 30 minutes before carrageenin, measured 90 minutes after carrageenin; FIG. 1
Source text: The action of Compound (I) on hyperalgesia in pain models was studied. As the pain models, models partially modified from an inflammatory pain model (a carrageenin paw edema pain model) and neuropathic pain models (Bennett model and Chung model) described in documents (Anesth. Analg., 2009, Vol. 108, pp. 1680-1687; Pain, 1988, Vol. 33, pp. 87-107; and Pain, 1992, Vol. 50, pp. 355-363) were used.
To the footpad of the left hind limb of each Crl:CD (SD) rat (male, 6-week old, Charles River Laboratories Japan, Inc.), an 1 w/v % suspension of carrageenin (Zushi Kagaku Laboratory, Inc.) in physiological saline was subcutaneously administered at 0.1 mL/body to produce the carrageenin paw edema pain model. Ninety minutes after the administration of the 1 w/v % suspension of carrageenin in physiological saline, the pain threshold (mmHg) of the footpad of the left hind limb was measured using Analgesy Meter (TK-201, Unicom) wherein the stimulating pressure was set so as to rise from 0 mmHg to 100 mmHg for 10 seconds. Each test compound was suspended in 0.5 w/v % methylcellulose (Wako Pure Chemical Industries, Ltd.), and the obtained solution was orally administered 30 minutes before the administration of the 1 w/v % suspension of carrageenin in physiological saline. […]

AUC(0-inf) [1]: 588 ng·h/mL | Cmax [1]: 561 ng/mL
SMILES: COc1c(NC(=O)N[C@@H]2Cc3ccccc3[C@@H]2O)cc(C(C)(C)C)cc1[C@@H](O)C(F)(F)F [Compound 46b, 1-(5-tert-butyl-2-methoxy-3-((R)-2,2,2-trifluoro-1-hydroxyethyl)phenyl)-3-((1S,2R)-1-hydroxy-2,3-dihydro-1H-indene-2-yl)urea]
FLA value (relative to amiodarone hydrochloride 10 μM as 1) (HepG2 cells; concentration up to 10 μM): less than 1 | phospholipidosis judgement (HepG2 cells; up to 10 μM, FLA less than 1 = negative): negative | AST value (ICR mouse): 47 U/L | suppression ratio on immediate response (auricular swelling AUC 0-4 hours) [2]: 94.4% | suppression ratio on late response (auricular swelling AUC 5-10 hours) [2]: 93.1% | pain threshold (mmHg) compared to solvent-administered group [3]: significantly elevated
